According to patent publication US7829665B2 (priority 2005, dated 2010):
Like-named read-outs stand apart in the source and are kept apart here.

How the values were obtained:
[1] = target: T1, full-length NS3/NS4A-2 (HCV NS3 protease) (Hepatitis C virus genotype 1a, UniProt P27958); experiment: NS3-NS4 protease assay / NS3 inhibition assay (RETS1 substrate, fluorescence kinetic read); format: biochemical
T1 construct: Recombinant E. coli or Baculovirus full-length NS3 was diluted to 3.33 μM with assay buffer; made in house; host or cells: E. coli or baculovirus (BV) expression system
Outline: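 Ki values come from IC50 fits corrected via Ki=IC50/(1+[S]/Km), with Km 2.03 μM for E. coli and 1.74 μM for baculovirus full-length NS3. Enzyme (2 or 3 nM NS3, respectively, complexed with NS4A-2) sat with compound, top concentration 50 microM, for 10 min at room temperature. Cleavage of RETS1 (8 μM working solution) was then followed by fluorescence (335/495 nm) over 30 min.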

[2] = tested on: HCV sub-genomic replicon in GS4.3 cells (HuH-7 hepatoma cells); experiment: Quantitation by ELISA of Neomycin phosphotransferase II (NPTII) in the HCV sub-genomic replicon, GS4.3; format: cell-based, hepatitis C virus; details: Hepatitis C virus, Huh-7; GS4.3 cells, 72 h incubation, NPTII ELISA; read-out: Replicon EC50
Method: The HCV sub-genomic replicon (1377/NS3-3′, accession No. AJ242652), stably maintained in HuH-7 hepatoma cells, was created by Lohmann et al. Science 285: 110-113 (1999). The replicon-containing cell culture, designated GS4.3, was obtained from Dr. Christoph Seeger of the Institute for Cancer Research, Fox Chase Cancer Center, Philadelphia, Pa.
GS4.3 cells were maintained at 37° C., 5% CO2, in DMEM (Gibco 11965-092) supplemented with L-glutamine 200 mM (100×) (Gibco25030-081), non-essential amino acids (NEAA) (Biowhittaker 13-114E), heat-inactivated (HI) Fetal Bovine Serum (FBS) (Hyclone SH3007.03) and 750 μg/ml geneticin (G418) (Gibco 10131-035). Cells were sub-divided 1:3 or 4 every 2-3 days.
24 h prior to the assay, GS4.3 cells were collected, counted, and plated in 96-well plates (Costar 3585) at 7500 cells/well in 100 μl standard maintenance medium (above) and incubated in the conditions above. To initiate the assay, culture medium was removed, cells were washed once with PBS (Gibco 10010-023) and 90 μl Assay Medium (DMEM, L-glutamine, NEAA, 10% HI FBS, no G418) was added. Inhibitors were made as a 10× stock in Assay Medium, (3-fold dilutions from 10 μM to 56 pM final concentration, final DMSO concentration 1%), 10 μl were added to duplicate wells, plates were rocked to mix, and incubated as above for 72 h.
An NPTII Elisa kit was obtained from AGDIA, Inc. (Compound direct ELISA test system for Neomycin Phosphotransferase II, PSP 73000/4800). Manufacturer's instructions were followed, with some modifications. 10×PEB-1 lysis buffer was made up to include 500 μM PMSF (Sigma P7626, 50 mM stock in isopropanol). After 72 h incubation, cells were washed once with PBS and 150 μl PEB-1 with PMSF was added per well. Plates were agitated vigorously for 15 minutes, room temperature, then frozen at −70° C. Plates were thawed, lysates were mixed thoroughly, and 100 μl were applied to an NPTII Elisa plate. A standard curve was made. Lysate from DMSO-treated control cells was pooled, serially diluted with PEB-1 with PMSF, and applied to duplicate wells of the ELISA plate, in a range of initial lysate amount of 150 ul-2.5 ul. In addition, 100 μl buffer alone was applied in duplicate as a blank. Plates were sealed and gently agitated at room temperature for 2 h. Following capture incubation, the plates were washed 5×300 μl with PBS-T (0.5% Tween-20, PBS-T was supplied in the ELISA kit). For detection, a 1× dilution of enzyme conjugate diluent MRS-2 (5×) was made in PBS-T, into which 1:100 dilutions of enzyme conjugates A and B were added, as per instructions. Plates were resealed, and incubated with agitation, covered, room temperature, for 2 h. The washing was then repeated and 100 μl of room temperature TMB substrate was added. After approximately 30 minutes incubation (room temperature, agitation, covered), the reaction was stopped with 50 μl 3M sulfuric acid. Plates were read at 450 nm on a Molecular Devices Versamax plate reader.
Inhibitor effect was expressed as a percentage of DMSO-treated control signal, and inhibition curves were calculated using a 4-parameter equation: y=A+((B−A)/(1+((C/x)^D))), where C is half-maximal activity or EC50.

[3] = recombinant E. coli or Baculovirus full-length NS3 with NS4A-2, read-out: NS3-NS4 IC50

T1 sequence (P27958 1027-1657): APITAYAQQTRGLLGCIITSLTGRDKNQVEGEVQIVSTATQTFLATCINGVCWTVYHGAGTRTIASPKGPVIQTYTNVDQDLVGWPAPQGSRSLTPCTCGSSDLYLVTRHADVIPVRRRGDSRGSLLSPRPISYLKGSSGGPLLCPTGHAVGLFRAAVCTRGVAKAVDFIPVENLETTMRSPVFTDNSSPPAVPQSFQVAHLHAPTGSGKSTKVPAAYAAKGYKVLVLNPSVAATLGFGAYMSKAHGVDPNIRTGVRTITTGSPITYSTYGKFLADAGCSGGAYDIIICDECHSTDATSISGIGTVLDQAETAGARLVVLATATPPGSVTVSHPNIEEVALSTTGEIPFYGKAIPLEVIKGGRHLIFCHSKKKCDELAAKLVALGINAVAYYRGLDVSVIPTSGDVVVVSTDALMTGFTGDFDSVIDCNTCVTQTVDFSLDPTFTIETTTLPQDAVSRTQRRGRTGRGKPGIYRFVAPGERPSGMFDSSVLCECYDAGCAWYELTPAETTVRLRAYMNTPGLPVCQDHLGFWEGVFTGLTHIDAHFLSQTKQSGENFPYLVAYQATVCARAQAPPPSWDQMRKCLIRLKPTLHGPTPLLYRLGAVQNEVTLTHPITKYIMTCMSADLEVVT

Structure (SMILES)	IC50 [1] [nM]	EC50 [2] [nM]	IC50 [1, 3] [nM]
CCOC1(S(=O)(=O)NC(=O)[C@@]23C[C@H]2/C=C\CCCCC[C@H](N)C(=O)N2C[C@H](OC(=O)N4Cc5cccc(Cl)c5C4)C[C@H]2C(=O)N3)CC1 [Compound 167]	< 100	< 10000	
N[C@H]1CCCCC/C=C\[C@@H]2C[C@@]2(C(=O)NS(=O)(=O)c2ccc(Cl)s2)NC(=O)[C@@H]2C[C@@H](OC(=O)N3Cc4cccc(Cl)c4C3)CN2C1=O [Compound 168]	< 100	< 10000	
N[C@H]1CCCCC/C=C\[C@@H]2C[C@@]2(C(=O)NS(=O)(=O)c2cccs2)NC(=O)[C@@H]2C[C@@H](OC(=O)N3Cc4cccc(Cl)c4C3)CN2C1=O [Compound 169]	< 100	< 10000	
CC(C)(C)OC(=O)N[C@H]1CCCCC/C=C\[C@@H]2C[C@@]2(C(=O)NS(=O)(=O)C2CC2)NC(=O)[C@@H]2C[C@@H](OC(=O)N3Cc4cccc(C(F)(F)F)c4C3)CN2C1=O [Compound 170]		< 100	< 100
COCC1(S(=O)(=O)NC(=O)[C@@]23C[C@H]2/C=C\CCCCC[C@H](NC(=O)OC2CCCC2)C(=O)N2C[C@H](OC(=O)N4Cc5cccc(F)c5C4)C[C@H]2C(=O)N3)CC1 [Compound 171]		< 100	< 100
CC(C)(C)OC(=O)N[C@H]1CCCCC/C=C\[C@@H]2C[C@@]2(C(=O)NS(=O)(=O)c2cc(Cl)sc2Cl)NC(=O)[C@@H]2C[C@@H](OC(=O)N3Cc4cccc(Cl)c4C3)CN2C1=O [Compound 172]		< 100	< 100
O=C(N[C@H]1CCCCC/C=C\[C@@H]2C[C@@]2(C(=O)NS(=O)(=O)c2cc(Cl)sc2Cl)NC(=O)[C@@H]2C[C@@H](OC(=O)N3Cc4cccc(F)c4C3)CN2C1=O)OC1CCCC1 [Compound 173]		< 100	< 100
O=C(N[C@H]1CCCCC/C=C\[C@@H]2C[C@@]2(C(=O)NS(=O)(=O)c2cc(Cl)sc2Cl)NC(=O)[C@@H]2C[C@@H](OC(=O)N3Cc4cccc(Cl)c4C3)CN2C1=O)OC1CCCC1 [Compound 174]		< 100	< 100
CN1CCN(c2ccc3c(c2)CN(C(=O)O[C@@H]2C[C@H]4C(=O)N[C@]5(C(=O)O)C[C@H]5/C=C\CCCCC[C@H](NC(=O)OC(C)(C)C)C(=O)N4C2)C3)CC1 [Compound 175]		> 10000	< 100
CC(C)(C)OC(=O)N[C@H]1CCCCC/C=C\[C@@H]2C[C@@]2(C(=O)O)NC(=O)[C@@H]2C[C@@H](OC(=O)N3Cc4ccc(N5CCOCC5)cc4C3)CN2C1=O [Compound 176]		> 10000	< 100
CC(C)(C)NC(=O)N[C@H]1CCCCC/C=C\[C@@H]2C[C@@]2(C(=O)O)NC(=O)C2C[C@@H](OC(=O)N3Cc4cccc(Cl)c4C3)CN2C1=O (stereo partly shown) [Compound 177]		< 10000	< 100
O=C(NC1CCCC1)N[C@H]1CCCCC/C=C\[C@@H]2C[C@@]2(C(=O)NS(=O)(=O)C2CC2)NC(=O)C2C[C@@H](OC(=O)N3Cc4cccc(F)c4C3)CN2C1=O (stereo partly shown) [Compound 178]		< 100	< 100
O=C(NC1CCCC1)N[C@H]1CCCCC/C=C\[C@@H]2C[C@@]2(C(=O)NS(=O)(=O)C2CC2)NC(=O)C2C[C@@H](OC(=O)N3Cc4cccc(Cl)c4C3)CN2C1=O (stereo partly shown) [Compound 180]		< 100	< 100
O=C(N[C@H]1CCCCC/C=C\[C@@H]2C[C@@]2(C(=O)O)NC(=O)C2C[C@@H](OC(=O)N3Cc4cccc(F)c4C3)CN2C1=O)c1cnccn1 (stereo partly shown) [Compound 181]		< 10000	< 1000
CC(C)Nc1c(N[C@H]2CCCCC/C=C\[C@@H]3C[C@@]3(C(=O)NS(=O)(=O)C3CC3)NC(=O)[C@@H]3C[C@@H](OC(=O)N4Cc5cccc(F)c5C4)CN3C2=O)c(=O)c1=O [Compound 184]		< 10000	< 100
CN(C)c1c(N[C@H]2CCCCC/C=C\[C@@H]3C[C@@]3(C(=O)NS(=O)(=O)C3CC3)NC(=O)[C@@H]3C[C@@H](OC(=O)N4Cc5cccc(F)c5C4)CN3C2=O)c(=O)c1=O [Compound 185]		< 10000	< 100
O=C(N[C@H]1CCCCC/C=C\[C@@H]2C[C@@]2(C(=O)NS(=O)(=O)C2CCCC2)NC(=O)[C@@H]2C[C@@H](OC(=O)N3CCc4ccccc4C3)CN2C1=O)OC1CCCC1 [Compound 186]		< 1000	< 100
O=C(N[C@H]1CCCCC/C=C\[C@@H]2C[C@@]2(C(=O)NS(=O)(=O)C2CCCCC2)NC(=O)[C@@H]2C[C@@H](OC(=O)N3CCc4ccccc4C3)CN2C1=O)OC1CCCC1 [Compound 189]		< 1000	< 100
O=C(N[C@H]1CCCCC/C=C\[C@@H]2C[C@@]2(C(=O)NS(=O)(=O)c2cccs2)NC(=O)[C@@H]2C[C@@H](OC(=O)N3CCc4ccccc4C3)CN2C1=O)OC1CCCC1 [Compound 190]		< 100	< 100
O=C1N[C@]2(C(=O)NS(=O)(=O)C3CC3)C[C@H]2/C=C\CCCCC[C@H](Nc2c(N3CCC3)c(=O)c2=O)C(=O)N2C[C@H](OC(=O)N3Cc4cccc(F)c4C3)C[C@@H]12 [Compound 193]		< 1000	< 100
CCC(C)(C)Nc1c(N[C@H]2CCCCC/C=C\[C@@H]3C[C@@]3(C(=O)NS(=O)(=O)C3CC3)NC(=O)[C@@H]3C[C@@H](OC(=O)N4Cc5cccc(F)c5C4)CN3C2=O)c(=O)c1=O [Compound 194]		< 10000	< 100
O=C1N[C@]2(C(=O)NS(=O)(=O)C3CC3)C[C@H]2/C=C\CCCCC[C@H](Nc2c(NCC(F)(F)F)c(=O)c2=O)C(=O)N2C[C@H](OC(=O)N3Cc4cccc(F)c4C3)C[C@@H]12 [Compound 196]		< 10000	< 100
O=C1N[C@]2(C(=O)NS(=O)(=O)C3CC3)C[C@H]2/C=C\CCCCC[C@H](Nc2c(N3CCCC3)c(=O)c2=O)C(=O)N2C[C@H](OC(=O)N3Cc4cccc(F)c4C3)C[C@@H]12 [Compound 197]		< 10000	< 100
O=C1N[C@]2(C(=O)NS(=O)(=O)C3CC3)C[C@H]2/C=C\CCCCC[C@H](Nc2c(N3CCCCC3)c(=O)c2=O)C(=O)N2C[C@H](OC(=O)N3Cc4cccc(F)c4C3)C[C@@H]12 [Compound 198]		< 1000	< 100
CCN(C)S(=O)(=O)NC(=O)[C@@]12C[C@H]1/C=C\CCCCC[C@H](NC(=O)OC(C)(C)C)C(=O)N1C[C@H](OC(=O)N3Cc4ccccc4C3)C[C@H]1C(=O)N2 [Compound 200]		< 100	< 100
CC(C)N(C)S(=O)(=O)NC(=O)[C@@]12C[C@H]1/C=C\CCCCC[C@H](NC(=O)OC(C)(C)C)C(=O)N1C[C@H](OC(=O)N3Cc4ccccc4C3)C[C@H]1C(=O)N2 [Compound 201]		< 100	< 100
CN(C)S(=O)(=O)NC(=O)[C@@]12C[C@H]1/C=C\CCCCC[C@H](N)C(=O)N1C[C@H](OC(=O)N3Cc4ccccc4C3)C[C@H]1C(=O)N2 [Compound 202]		< 10000	< 100
[2H]C([2H])([2H])N(C([2H])([2H])[2H])S(=O)(=O)NC(=O)[C@@]12C[C@H]1/C=C\CCCCC[C@H](NC(=O)OC(C)(C)C)C(=O)N1C[C@H](OC(=O)N3Cc4ccccc4C3)C[C@H]1C(=O)N2 [Compound 204]		< 100	< 100
O=C(N[C@H]1CCCCC/C=C\[C@@H]2C[C@@]2(C(=O)NS(=O)(=O)NCC2CC2)NC(=O)[C@@H]2C[C@@H](OC(=O)N3Cc4cccc(F)c4C3)CN2C1=O)OC1CCCC1 [Compound 205]		< 1000	< 100
